Patent EP0791072B1, “PROCESS FOR DETERMINING THE ACTIVITY OF SPECIFIC PHOSPHOTYROSINE PHOSPHATASES AND SPECIFIC EFFECTORS THEREOF IN INTACT CELLS” (Max-Planck-Gesellschaft zur Förderung der Wissenschaften …, priority 1994, dated 1996)

How the values were obtained:
Type in all cases: cell-based, Maus
[1] = system: PDGF-Rezeptor-gerichtete(n) PTPase(n)
PDGF-Rezeptor PTK = assay: Inhibition of PDGF-induced receptor autophosphorylation in intact Swiss 3T3 cells (anti-phosphotyrosine immunoblot); details: AG 1296 50 µM, 2 min preincubation, then PDGF-BB 100 ng/ml for 5 min
Source text: (§1) Swiss 3T3 Fibroblasten (Maus) exprimieren PDGFα und PDGFβ-Rezeptoren auf der Zelloberfläche (Hosang et al. (1989)). Die Stimulation der Zellen mit PDGF führt zu einer raschen Autophosphorylierung dieser Rezeptoren an Tyrosinresten. […] Die autophosphorylierten Rezeptoren werden durch PDGF-Rezeptor-gerichtete PTPase(n) rasch dephosphoryliert (Bohmer et al. (1993)). Die Identität der zellulären PTPasen, die diese Reaktion katalysieren, ist nicht bekannt. Ein hochspezifischer Inhibitor für die PDGF-Rezeptor PTK (AG 1296) hemmt deren Aktivität bereits nach sehr kurzer Behandlung der Zellen (2 min) vollständig (Abb. 1). In isolierten Membranen von Swiss 3T3-Zellen beeinflußt der Inhibitor die in den Membranen enthaltenen PTPase(n) für den autophosphorylierten PDGF-Rezeptor in ihrer Aktivität nicht (Abb. 2). Wird der Inhibitor Zellen nach Aktivierung der PDGF-Rezeptor PTK zugesetzt, kann die Dephosphorylierung des PDGF-Rezeptors zeitabhängig verfolgt werden (Abb. 3).

PDGF-Rezeptor = assay: Time course of PDGF receptor phosphotyrosine content in intact Swiss 3T3 cells, PTK inhibitor added after PDGF stimulation; details: AG 1296 50 µM added after 5 min PDGF stimulation, over incubation time
Source text: as §1
Swiss 3T3-Zellen wurden in serumfreiem Medium mit PDGF (Abb. 3, Bahn 2-6) oder dem entsprechenden Lösungsmittel (Abb. 3, Bahn 1) behandelt. Nach 5-minütiger Stimulation wurde AG 1296 (50 µM, Abb. 3 B) oder entsprechendes Lösungsmittel (DMSO, Abb. 3 A) zugesetzt. […] Diese Abnahme wird durch die Aktivität der PDGF Rezeptor-gerichteten PTPase in den intakten Zellen bewirkt. Eine graphische Auswertung ist in Abb. 4 gezeigt. […]

Compound	Relative PDGF Rezeptor-gerichtete PTPase-Aktivität (% der Kontrolle) [1]	PDGF-induzierte Autophosphorylierung des Rezeptors (PDGF-Rezeptor PTK)	Phosphotyrosingehalt der PDGF-Rezeptoren (PDGF-Rezeptor)
CNc1ccc2oc(C[C@H]3O[C@@]4(CC[C@H]3C)O[C@H]([C@H](C)C(=O)c3ccc[nH]3)[C@H](C)C[C@H]4C)nc2c1C(=O)O [A 23187, 5-(Methylamino)-2-[[3,9,11-trimethyl-8-[1-methyl-2-oxo-(1H-pyrrol-2-yl)ethyl]-1,7-dioxaspiro[5,5]undec-2-yl]methyl]-4-benoxazolcarbonsäure]	161 % der Kontrolle	–	–
COc1cc2ncc(-c3ccccc3)nc2cc1OC [AG 1296]	–	vollständig unterdrückt	kontinuierlich ab
